In one experiment the target is T1, human TLR-8 (Homo sapiens, UniProt Q9NR97).
T1 construct: host or cells: HEK cells stably transfected with human TLR-8 and an NF-κB-responsive SEAP reporter (HEK-TLR-8)
T1 sequence (Q9NR97 27-1041): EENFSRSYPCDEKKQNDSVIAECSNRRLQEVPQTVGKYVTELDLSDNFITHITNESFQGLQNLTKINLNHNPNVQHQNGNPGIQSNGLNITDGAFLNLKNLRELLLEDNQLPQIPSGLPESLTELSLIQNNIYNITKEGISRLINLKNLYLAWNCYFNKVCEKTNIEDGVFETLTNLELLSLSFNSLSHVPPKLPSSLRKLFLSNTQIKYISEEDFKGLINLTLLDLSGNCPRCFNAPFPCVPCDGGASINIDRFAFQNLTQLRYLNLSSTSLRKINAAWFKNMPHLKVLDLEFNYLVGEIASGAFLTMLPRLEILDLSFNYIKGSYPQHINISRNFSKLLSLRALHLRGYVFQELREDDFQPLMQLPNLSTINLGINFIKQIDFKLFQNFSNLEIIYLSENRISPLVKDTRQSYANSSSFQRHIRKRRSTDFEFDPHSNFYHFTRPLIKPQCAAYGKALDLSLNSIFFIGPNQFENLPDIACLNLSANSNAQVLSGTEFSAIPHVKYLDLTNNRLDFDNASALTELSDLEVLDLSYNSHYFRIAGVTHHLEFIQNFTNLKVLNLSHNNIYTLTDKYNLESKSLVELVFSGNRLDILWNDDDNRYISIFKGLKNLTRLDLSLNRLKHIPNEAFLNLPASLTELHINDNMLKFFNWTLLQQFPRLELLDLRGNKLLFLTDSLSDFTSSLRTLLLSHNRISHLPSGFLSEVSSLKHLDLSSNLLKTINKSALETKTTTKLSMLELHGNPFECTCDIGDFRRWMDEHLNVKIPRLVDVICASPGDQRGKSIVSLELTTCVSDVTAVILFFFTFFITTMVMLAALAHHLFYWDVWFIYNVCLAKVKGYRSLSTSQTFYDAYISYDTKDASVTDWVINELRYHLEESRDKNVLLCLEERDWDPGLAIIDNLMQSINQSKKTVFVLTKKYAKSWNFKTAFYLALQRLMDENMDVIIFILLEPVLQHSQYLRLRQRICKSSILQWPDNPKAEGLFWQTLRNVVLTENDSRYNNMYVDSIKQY
Nature of the experiment: TLR7/8-NF-κB Reporter Assay (HEK SEAP Reporter Assay), HEK-TLR-8 cells. In kind it is cell-based. The settings on record: HEK cells stably transfected with human TLR-8 and NF-κB-responsive SEAP gene, 24 h.

For the next experiment, the target named is T2, human TLR-7 (Homo sapiens, UniProt Q9NYK1).
T2 construct: host or cells: HEK cells stably transfected with human TLR-7 and an NF-κB-responsive SEAP reporter (HEK-TLR-7)
T2 sequence (Q9NYK1 27-1049): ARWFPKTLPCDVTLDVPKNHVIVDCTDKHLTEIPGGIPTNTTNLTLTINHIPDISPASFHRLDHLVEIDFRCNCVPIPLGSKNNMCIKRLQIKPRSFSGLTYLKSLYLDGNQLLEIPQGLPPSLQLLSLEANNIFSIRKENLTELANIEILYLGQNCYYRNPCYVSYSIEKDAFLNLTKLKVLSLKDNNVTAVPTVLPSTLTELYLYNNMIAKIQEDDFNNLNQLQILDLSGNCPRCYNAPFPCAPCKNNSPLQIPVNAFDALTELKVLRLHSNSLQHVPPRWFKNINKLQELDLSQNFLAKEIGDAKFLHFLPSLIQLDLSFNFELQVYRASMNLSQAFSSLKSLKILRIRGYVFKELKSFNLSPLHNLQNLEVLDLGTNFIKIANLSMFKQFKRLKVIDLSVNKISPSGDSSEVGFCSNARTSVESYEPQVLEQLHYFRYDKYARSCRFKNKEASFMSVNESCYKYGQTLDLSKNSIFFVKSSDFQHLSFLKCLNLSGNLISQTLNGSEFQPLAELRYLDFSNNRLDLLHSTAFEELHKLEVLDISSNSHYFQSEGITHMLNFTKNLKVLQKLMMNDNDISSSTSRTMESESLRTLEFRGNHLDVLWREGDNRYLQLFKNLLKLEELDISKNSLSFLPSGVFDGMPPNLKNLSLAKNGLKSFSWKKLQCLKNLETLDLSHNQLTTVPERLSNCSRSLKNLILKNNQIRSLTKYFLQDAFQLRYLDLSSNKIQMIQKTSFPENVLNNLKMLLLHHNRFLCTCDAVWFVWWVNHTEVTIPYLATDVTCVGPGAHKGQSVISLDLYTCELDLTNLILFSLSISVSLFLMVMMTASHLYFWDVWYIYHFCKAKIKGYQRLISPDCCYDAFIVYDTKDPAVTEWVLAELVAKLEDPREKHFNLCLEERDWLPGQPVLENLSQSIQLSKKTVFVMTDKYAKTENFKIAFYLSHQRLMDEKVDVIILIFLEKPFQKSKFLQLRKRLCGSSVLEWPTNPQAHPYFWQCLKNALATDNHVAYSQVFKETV
In words: TLR7/8-NF-κB Reporter Assay (HEK SEAP Reporter Assay), HEK-TLR-7 cells. It is filed as cell-based. To be noted: HEK cells stably transfected with human TLR-7 and NF-κB-responsive SEAP gene, 24 h.

One may read the EC50 as the concentration needed to bring the measured effect to its halfway point.

In the case of `CCCCc1nc2c(N)nc3cc(C(=O)OC)ccc3c2n1CCCCCN` [Compound 574], the EC50 at human TLR-8 turned out to be 2.2 µM; on human TLR-7, 0.6 µM.
For `CCCCc1nc2c(N)nc3cc(C(=O)OC)ccc3c2n1CCCNS(=O)(=O)c1ccccc1` [Compound 544] the same measures were 0.24 µM and 0.42 µM.
At human TLR-7, `CCCCc1nc2c(N)nc3cc(C(=O)OC)ccc3c2n1CCCCC(=O)OC` [Compound 569] registered a concentration giving a half-maximal response (EC50) of 1.74 µM.
The same measure, in the same setting: under `CCCCc1nc2c(N)nc3cc(C(=O)OC)ccc3c2n1CCSCC` [Compound 565] stands 6.7 µM.
Same read-out and setting: under `CCCCc1nc2c(N)nc3cc(C(=O)OC)ccc3c2n1CCCCCC(=O)OC` [Compound 570] stands 2.9 µM.
The same measure, in the same setting: for `CCCCc1nc2c(N)nc3cc(C(=O)OC)ccc3c2n1CCCSC` [Compound 564] the value was 3.8 µM; for `CCCCc1nc2c(N)nc3cc(C(=O)OC)ccc3c2n1CCSC` [Compound 563], 2.9 µM; for `CCCCc1nc2c(N)nc3cc(C(=O)OC)ccc3c2n1CCC(=O)OC` [Compound 567], 3.6 µM.
`CCCCc1nc2c(N)nc3cc(C(=O)OC)ccc3c2n1Cc1ccc(C(=O)O)cc1` [Compound 556] came in with an EC50 at human TLR-7 of 189 µM.
Same read-out and setting: for `CCCCc1nc2c(N)nc3cc(C(=O)OC)ccc3c2n1CC(=O)OC` [Compound 566] the value was 3.3 µM.
At human TLR-8, `CCCCc1nc2c(N)nc3cc(C(=O)OC)ccc3c2n1CCCN` [Compound 572] gave an EC50 of 66 µM.
On to “4-amino-2-butyl-1-(2-hydroxypropyl)-7-benzenesulphonyl-1H-imidazo[4,5-c]quinoline [Compound 548]”, for which the values for the EC50 at human TLR-8 and on human TLR-7 were 0.29 µM and 1.53 µM, respectively.
At human TLR-8, `CCCCc1nc2c(N)nc3cc(C(=O)OC)ccc3c2n1CCCCN` [Compound 573] had an EC50 of 3.85 µM.
With `CCCCc1nc2c(N)nc3cc(C(=O)OC)ccc3c2n1CCCC(=O)OC` [Compound 568], a half-maximal effect at human TLR-7 (EC50) was put at 4.5 µM.
